Assay results from patent publication US20060014790A1, “Methods of treatment of amyloidosis using spirocyclohexane aspartyl-protease inhibitors” (priority 2004, published 2006).

Experiments:
A-beta = assay: Efficacy of compounds to inhibit A-beta concentration (% inhibition vs vehicle control); type: in vivo, rat
Experimental: Efficacious compounds of the present invention are those able to decrease the amount of A-beta produced compared to a control, where beta-secretase mediated cleavage is observed and measured in the absence of the compounds. Detection of efficacy can be by analysis of A-beta levels, for example, by immunoassay, fluorometric or chromogenic assay, HPLC, or other means of detection. The efficacy of the compounds of formula (I) was determined as a percentage inhibition corresponding to A-beta concentrations for tissue treated and untreated with compound.
The invention encompasses compounds of formula (I) that are efficacious.

[1] = molecular target: catE / beta-secretase (BACE); assay: CatE/BACE selectivity (ratio of IC50 values); type: biochemical; settings: each value is an average of four experimental runs; multiple values = more than one experiment
Experimental: Selectivity was calculated as a ratio of inhibition (IC50) values in which the inhibition of beta-secretase was compared to the inhibition of other aspartyl proteases.
Selectivity is reported as the ratio of IC50(catE):IC50(BACE).
In the following examples, each value is an average of four experimental runs and multiple values for one compound indicate that more than one experiment was conducted.

Structure (SMILES)	Efficacy (% Inhibition, 100 mg/kg) plasma (A-beta) [%]	Efficacy (% Inhibition, 100 mg/kg) cortex (A-beta) [%]	IC50 catE/IC50 BACE [1]
CC(=O)NC(Cc1cc(F)cc(F)c1)C(O)CNC1(c2cccc(C(C)(C)C)c2)CCC(O)CC1 (single isomer, unassigned) [195-5 Diastereomer A, N-[3-[1-(3-tert-Butyl-phenyl)-4-hydroxy-cyclohexylamino]-1-(3,5-difluoro-benzyl)-2-hydroxy-propyl]-acetamide]	55	–	–
CONC1CCC(NCC(O)C(Cc2cc(F)cc(F)c2)NC(C)=O)(c2cccc(C(C)(C)C)c2)CC1 (single isomer, unassigned) [195-7 Diastereomer A, N-(4-(1-(3-tert-butylphenyl)-4-(methoxyamino)cyclohexylamino)-1-(3,5-difluorophenyl)-3-hydroxybutan-2-yl)acetamide]	50	–	–
CC(=O)NC(Cc1cc(F)cc(F)c1)C(O)CNC1(c2cccc(C(C)(C)C)c2)CCC(NO)CC1 (single isomer, unassigned) [195-8 Diastereomer A, N-(4-(1-(3-tert-butylphenyl)-4-(hydroxyamino)cyclohexylamino)-1-(3,5-difluorophenyl)-3-hydroxybutan-2-yl)acetamide]	–	7	–
CC(=O)NC1CCC(NCC(O)C(Cc2cc(F)cc(F)c2)NC(C)=O)(c2cccc(C(C)(C)C)c2)CC1 (single isomer, unassigned) [196B-23 Diastereomer A, N-[3-[4-Acetylamino-1-(3-tert-butyl-phenyl)-cyclohexylamino]-1-(3,5-difluoro-benzyl)-2-hydroxy-propyl]-acetamide]	–	–	29.5
CC(=O)NC(Cc1cc(F)cc(F)c1)C(O)CNC1(c2cccc(C(C)(C)C)c2)CCC([S+](C)[O-])CC1 (single isomer, unassigned) [196B-24 Diastereomer B, N-(4-(1-(3-tert-butylphenyl)-4-(methylsulfinyl)cyclohexylamino)-1-(3,5-difluorophenyl)-3-hydroxybutan-2yl)acetamide]	–	–	3.0
CC(=O)NC(Cc1cc(F)cc(F)c1)C(O)CNC1(c2cccc(C(C)(C)C)c2)CCC([S+](C)[O-])CC1 (single isomer, unassigned) [196B-25 Diastereomer A, N-(4-(1-(3-tert-butylphenyl)-4-(methylsulfinyl)cyclohexylamino)-1-(3,5-difluorophenyl)-3-hydroxybutan-2yl)acetamide]	–	–	1.1
CC(=O)NC(Cc1cc(F)cc(F)c1)C(O)CNC1(c2cccc(C(C)(C)C)c2)CCC(O)(CO)CC1 (single isomer, unassigned) [196B-27 Diastereomer B, N-[3-[1-(3-tert-Butyl-phenyl)-4-hydroxy-4-hydroxymethyl-cyclohexylamino]-1-(3,5-difluoro-benzyl)-2-hydroxy-propyl]-acetamide]	–	–	>5.3
CC(=O)NC(Cc1cc(F)cc(F)c1)C(O)CNC1(c2cccc(C(C)(C)C)c2)CCC(O)(CO)CC1 (single isomer, unassigned) [196B-28 Diastereomer A, N-[3-[1-(3-tert-Butyl-phenyl)-4-hydroxy-4-hydroxymethyl-cyclohexylamino]-1-(3,5-difluoro-benzyl)-2-hydroxy-propyl]-acetamide]	–	–	>7.4
COC(=O)NC1CCC(NCC(O)C(Cc2cc(F)cc(F)c2)NC(C)=O)(c2cccc(C(C)(C)C)c2)CC1 (single isomer, unassigned) [196B-29 Diastereomer A, methyl 4-(3-acetamido-4-(3,5-difluorophenyl)-2-hydroxybutylamino)-4-(3-tert-butylphenyl)cyclohexylcarbamate]	–	–	13.1
CC(=O)NC(Cc1cc(F)cc(F)c1)C(O)CNC1(c2cccc(C(C)(C)C)c2)CCC(N(O)C(C)=O)CC1 (single isomer, unassigned) [196B-31 Diastereomer A, N-(4-(3-acetamido-4-(3,5-difluorophenyl)-2-hydroxybutylamino)-4-(3-tert-butylphenyl)cyclohexyl)-N-hydroxyacetamide]	–	–	13.0
CC(=O)NC(Cc1cc(F)cc(F)c1)C(O)CNC1(c2cccc(C(C)(C)C)c2)CCC(NS(C)(=O)=O)CC1 (single isomer, unassigned) [196B-35 Diastereomer B, N-(4-(1-(3-tert-butylphenyl)-4-(methylsulfonamido)cyclohexylamino)-1-(3,5-difluorophenyl)-3-hydroxybutan-2-yl)acetamide]	–	–	>3.0
CC(=O)NC(Cc1cc(F)cc(F)c1)C(O)CNC1(c2cccc(C(C)(C)C)c2)CCC(NC=O)CC1 (single isomer, unassigned) [196B-36 Diastereomer A, N-(4-(1-(3-tert-butylphenyl)-4-formamidocyclohexylamino)-1-(3,5-difluorophenyl)-3-hydroxybutan-2-yl)acetamide]	–	–	26.5
CNC(=O)NC1CCC(NCC(O)C(Cc2cc(F)cc(F)c2)NC(C)=O)(c2cccc(C(C)(C)C)c2)CC1 (single isomer, unassigned) [196B-38 Diastereomer B, 1-(4-(3-acetamido-4-(3,5-difluorophenyl)-2-hydroxybutylamino)-4-(3-tert-butylphenyl)cyclohexyl)-3-methylurea]	–	–	>3.5
CNC(=O)NC1CCC(NCC(O)C(Cc2cc(F)cc(F)c2)NC(C)=O)(c2cccc(C(C)(C)C)c2)CC1 (single isomer, unassigned) [196B-39 Diastereomer A, 1-(4-(3-acetamido-4-(3,5-difluorophenyl)-2-hydroxybutylamino)-4-(3-tert-butylphenyl)cyclohexyl)-3-methylurea]	–	–	>1.3
CC(=O)NC(Cc1cc(F)cc(F)c1)C(O)CNC1(c2cccc(C(C)(C)C)c2)CCCCC1 (stereo not drawn) [Example 195-1, N-[3-[1-(3-tert-Butyl-phenyl)-cyclohexylamino]-1-(3,5-difluoro-benzyl)-2-hydroxy-propyl]-acetamide]	50	62	–
CC(=O)NC(Cc1cc(F)cc(F)c1)C(O)CNC1(c2cccc(C(C)C)c2)CCC(=O)CC1 (stereo not drawn) [Example 195-2, N-{1-(3,5-Difluoro-benzyl)-2-hydroxy-3-[1-(3-isopropyl-phenyl)-4-oxo-cyclohexylamino]-propyl}acetamide]	59	47	–
CC(=O)NC(Cc1ccc(O)c(F)c1)C(O)CNC1(c2cccc(C(C)C)c2)CCCCC1 (stereo not drawn) [Example 196B-1, N-{1-(3-Fluoro-4-hydroxy-benzyl)-2-hydroxy-3[1-(3-isopropyl-phenyl)-cyclohexylamino]-propyl}-acetamide]	–	–	3.2
CC(=O)NC(Cc1cc(F)cc(F)c1)C(O)CNC1(c2cccc(C(C)C)c2)CCC(=O)CC1 (stereo not drawn) [Example 196B-2, N-{1-(3,5-Difluoro-benzyl)-2-hydroxy-3-[1-(3-isopropyl-phenyl)-4-oxo-cyclohexylamino]-propyl}-acetamide]	–	–	3.7
CC(=O)NC(Cc1cc(F)cc(F)c1)C(O)CNC1(c2cccc(C(C)(C)C)c2)CCC(C)CC1 (stereo not drawn) [Example 196B-5, N-[3-[1-(3-tert-Butyl-phenyl)-4-methyl-cyclohexylamino]-1-(3,5-difluoro-benzyl)-2-hydroxy-propyl]-acetamide]	–	–	3.1
CC(=O)NC(Cc1cc(F)cc(F)c1)C(O)CNC1(c2cccc(-c3ccsc3)c2)CCC(=O)CC1 (stereo not drawn) [Example 196B-10, N-(1-(3,5-difluorophenyl)-3-hydroxy-4-(4-oxo-1-(3-(thiophen-3-yl)phenyl)cyclohexylamino)butan-2-yl)acetamide]	–	–	5.6
CC(=O)NC(Cc1cc(F)cc(F)c1)C(O)CNC1(c2cccc(-n3cccn3)c2)CCC2(CC1)OCCO2 (stereo not drawn) [Example 196B-13, N-{1-(3,5-Difluoro-benzyl)-2-hydroxy-3-[8-(3-pyrazol-1-yl-phenyl)-1,4-dioxa-spiro[4.5]dec-8-ylamino]-propyl}-acetamide]	–	–	2.5
CC(=O)NC(Cc1cc(F)cc(F)c1)C(O)CNC1(c2cccc(C(C)(C)C)c2)CCN(CCC#N)CC1 (stereo not drawn) [Example 196B-26, N-[3-[4-(3-tert-Butyl-phenyl)-1-(2-cyano-ethyl)-piperidin-4-ylamino]-1-(3,5-difluoro-benzyl)-2-hydroxy-propyl]-acetamide]	–	–	1.8
CC(=O)NC(Cc1cc(F)cc(F)c1)C(O)CNC1(c2cccc(C(C)(C)C)c2)CCCN(C)C1 (stereo not drawn) [Example 196B-32, N-(4-(3-(3-tert-butylphenyl)-1-methylpiperidin-3-ylamino)-1-(3,5-difluorophenyl)-3-hydroxybutan-2-yl)acetamide]	–	–	>2,0
CC(=O)NC(Cc1cc(F)cc(F)c1)C(O)CNC1(c2cccc(Br)c2)CCC2(CC1)OCCO2 (stereo not drawn) [Example 196B-40, N-[3-[8-(3-Bromo-phenyl)-1,4-dioxa-spiro[4.5]dec-8-ylamino]-1-(3,5-difluoro-benzyl)-2-hydroxy-propyl]-acetamide]	–	–	2.8
CC(=O)NC(Cc1cc(F)cc(F)c1)C(O)CNC1(c2cccc(C(C)(C)C)c2)CCC(C#N)CC1 (stereo not drawn) [Example 196B-41, N-[3-[1-(3-tert-Butyl-phenyl)-4-cyano-cyclohexylamino]-1-(3,5-difluoro-benzyl)-2-hydroxy-propyl]-acetamide]	–	–	2.5
